In BigSolDB 2.1:

CN1C(C(=O)Nc2ccccn2)=C(O)c2sccc2S1(=O)=O
Conditions	solubility (mole fraction)
in PEG-400, 298.15 K	0.0098
in PEG-400, 303.15 K	0.0134
in PEG-400, 308.15 K	0.0178
in PEG-400, 313.15 K	0.0228
in PEG-400, 323.15 K	0.035

in water
Conditions	solubility (mole fraction)
298.15 K	4.13e-06
303.15 K	5.1e-06
308.15 K	6.62e-06
313.15 K	8.49e-06
323.15 K	1.4e-05
